Measurements from PubChem BioAssay AID330 (DTP/NCI, 2004).
“And” between values parts separate entries of the source, which are not always exact repeats. Equal entries are not always repeated. Toxic doses and inconclusive results are not listed.

Test system: P388 leukemia ip, CD2F1 mice, survival T/C
Test: NCI In Vivo Anticancer Drug Screen. Data for tumor model P388 Leukemia (intraperitoneal) in CD2F1 (CDF1) mice
Settings: endpoint: median survival time, higher = longer survival
Outline: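 Mice carrying the transplanted tumor received test compound or vehicle. Survival was recorded in each group, and the value is the treated-group measurement divided by that of the vehicle-treated control group.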

In the case of O=c1c(-c2ccc3c(c2)OCO3)coc2c3c(ccc12)OCO3, the T/C (dose: 8.0 mg/kg/injection, schedule: Q01DX005 (ip), vehicle: Klucel (hydroxypropylcellulose) (HPC)) is reported as 93 % of control, the T/C (dose: 16.0 mg/kg/injection, schedule: Q01DX005 (ip), vehicle: Klucel (hydroxypropylcellulose) (HPC)) is reported as 100 % of control and the T/C (dose: 32.0 mg/kg/injection, schedule: Q01DX005 (ip), vehicle: Klucel (hydroxypropylcellulose) (HPC)) is reported as 94 % of control. The T/C (dose: 64.0 mg/kg/injection, schedule: Q01DX005 (ip), vehicle: Klucel (hydroxypropylcellulose) (HPC)) was 88 % of control.

In the case of CCn1c(-c2ccccc2)nc(=S)c(C(=O)c2ccccc2)c1SC, the T/C (dose: 100.0 mg/kg/injection, schedule: Q04DX003 (ip), vehicle: Klucel (hydroxypropylcellulose) (HPC)) is reported as 98 % of control, the T/C (dose: 200.0 mg/kg/injection, schedule: Q04DX003 (ip), vehicle: Klucel (hydroxypropylcellulose) (HPC)) is reported as 100 % of control and the T/C (dose: 400.0 mg/kg/injection, schedule: Q04DX003 (ip), vehicle: Klucel (hydroxypropylcellulose) (HPC)) is reported as 100 % of control.

O=C(O)CC1OCC=C2CN3CCC45c6ccccc6NC4C1C2CC35 (stereo not given) was tested, and the T/C (dose: 0.93 mg/kg/injection, schedule: Q01DX005 (ip), vehicle: Klucel (hydroxypropylcellulose) (HPC)) was 100 % of control, the T/C (dose: 1.87 mg/kg/injection, schedule: Q01DX005 (ip), vehicle: Klucel (hydroxypropylcellulose) (HPC)) was 98 % of control and the T/C (dose: 7.5 mg/kg/injection, schedule: Q01DX005 (ip), vehicle: saline with Tween-80) was 100 % of control. For the same molecule, the T/C (dose: 15.0 mg/kg/injection, schedule: Q01DX005 (ip), vehicle: saline with Tween-80) was 100 % of control and the T/C (dose: 30.0 mg/kg/injection, schedule: Q01DX005 (ip), vehicle: saline with Tween-80) was 100 % of control.

In the case of CCOC(=O)COc1cc2c(cc1Cc1ccc3c(c1)OCO3)OCO2, the T/C (dose: 12.5 mg/kg/injection, schedule: Q01DX005 (ip), vehicle: Klucel (hydroxypropylcellulose) (HPC)) is reported as 96 % of control, the T/C (dose: 25.0 mg/kg/injection, schedule: Q01DX005 (ip), vehicle: Klucel (hydroxypropylcellulose) (HPC)) is reported as 96 % of control and the T/C (dose: 50.0 mg/kg/injection, schedule: Q01DX005 (ip), vehicle: Klucel (hydroxypropylcellulose) (HPC)) is reported as 101 % of control. For the same molecule, the T/C (dose: 100.0 mg/kg/injection, schedule: Q01DX005 (ip), vehicle: Klucel (hydroxypropylcellulose) (HPC)) was 98 % of control and the T/C (dose: 200.0 mg/kg/injection, schedule: Q01DX005 (ip), vehicle: Klucel (hydroxypropylcellulose) (HPC)) was 99 % of control.

For COc1ccc2nc(NN=O)sc2c1, the T/C (dose: 1.56 mg/kg/injection, schedule: Q01DX009 (ip), vehicle: water) was 92 % of control, the T/C (dose: 3.12 mg/kg/injection, schedule: Q01DX009 (ip), vehicle: water) was 101 % of control and 103 % of control and the T/C (dose: 6.25 mg/kg/injection, schedule: Q01DX009 (ip), vehicle: water) was 100 % of control and 92 % of control. For the same molecule, the T/C (dose: 12.5 mg/kg/injection, schedule: Q01DX009 (ip), vehicle: water) was 100 % of control and 101 % of control, the T/C (dose: 25.0 mg/kg/injection, schedule: Q01DX009 (ip), vehicle: water) was 104 % of control and 97 % of control and the T/C (dose: 50.0 mg/kg/injection, schedule: Q01DX009 (ip), vehicle: water) was 111 % of control.

For COc1cccc2c1C(=O)c1c(O)c3c(c(O)c1C2=O)C[C@@](O)(C(=O)CO)C[C@@H]3OC1CC(N2CCOCC2C#N)C(O)C(C)O1 (stereo not given in full), the T/C (dose: 9.38 micrograms/kg/injection, schedule: Q04DX003 (ip), vehicle: saline with Tween-80) was 191 % of control and 198 % of control, the T/C (dose: 9.38 micrograms/kg/injection, schedule: Q04DX003 (ip), vehicle: water) was 105 % of control and the T/C (dose: 15.0 micrograms/kg/injection, schedule: Q04DX003 (iv), vehicle: saline + alcohol) was 180 % of control. The T/C (dose: 18.75 micrograms/kg/injection, schedule: Q04DX003 (ip), vehicle: saline with Tween-80) was 252 % of control and 260 % of control, the T/C (dose: 18.75 micrograms/kg/injection, schedule: Q04DX003 (ip), vehicle: water) was 107 % of control and the T/C (dose: 22.0 micrograms/kg/injection, schedule: Q04DX003 (iv), vehicle: saline + alcohol) was 180 % of control. The T/C (dose: 37.5 micrograms/kg/injection, schedule: Q04DX003 (ip), vehicle: saline with Tween-80) was 110 % of control, the T/C (dose: 75.0 micrograms/kg/injection, schedule: Q04DX003 (ip), vehicle: water) was 178 % of control and 196 % of control and the T/C (dose: 150.0 micrograms/kg/injection, schedule: Q04DX003 (ip), vehicle: water) was 111 % of control. The T/C (dose: 300.0 micrograms/kg/injection, schedule: Q04DX003 (ip), vehicle: water) was 89 % of control.

Cc1ccc(COc2ccc(Cl)cc2Cn2ccnc2)cc1 was tested, and the T/C (dose: 25.0 mg/kg/injection, schedule: Q04DX002 (ip), vehicle: saline) was 104 % of control, the T/C (dose: 50.0 mg/kg/injection, schedule: Q04DX002 (ip), vehicle: saline) was 106 % of control and the T/C (dose: 100.0 mg/kg/injection, schedule: Q04DX002 (ip), vehicle: saline) was 106 % of control and 116 % of control.

With CCN(CC)C(=O)Nc1ccc(O)c(C(=O)O)c1 the T/C (dose: 100.0 mg/kg/injection, schedule: Q01DX001 (ip), vehicle: saline with Tween-80) was 100 % of control, the T/C (dose: 200.0 mg/kg/injection, schedule: Q01DX001 (ip), vehicle: saline with Tween-80) was 100 % of control and the T/C (dose: 400.0 mg/kg/injection, schedule: Q01DX001 (ip), vehicle: saline with Tween-80) was 100 % of control.

CCOC(=O)c1ccccc1NC(=O)c1ccccc1 was tested, and the T/C (dose: 25.0 mg/kg/injection, schedule: Q01DX009 (ip), vehicle: saline with Tween-80) was 93 % of control, the T/C (dose: 50.0 mg/kg/injection, schedule: Q01DX009 (ip), vehicle: saline with Tween-80) was 94 % of control and the T/C (dose: 100.0 mg/kg/injection, schedule: Q01DX009 (ip), vehicle: saline with Tween-80) was 103 % of control. For the same molecule, the T/C (dose: 200.0 mg/kg/injection, schedule: Q01DX009 (ip), vehicle: saline with Tween-80) was 111 % of control.

With O=C(Cn1c(=O)sc2ccc(Cl)cc21)N1CCN(CCO)CC1 the T/C (dose: 25.0 mg/kg/injection, schedule: Q01DX009 (ip), vehicle: saline) was 105 % of control, the T/C (dose: 50.0 mg/kg/injection, schedule: Q01DX009 (ip), vehicle: saline) was 105 % of control and the T/C (dose: 100.0 mg/kg/injection, schedule: Q01DX009 (ip), vehicle: saline) was 99 % of control. The T/C (dose: 200.0 mg/kg/injection, schedule: Q01DX009 (ip), vehicle: saline) was 94 % of control.

CC1=CC[C@@H]2[C@@H](CC[C@@]2(C)O)C(C)(C)[C@H]1CC[C@@H]1[C@@]2(C)CCC(=O)C(C)(C)O[C@@H]2CC[C@]1(C)O was tested, and the T/C (dose: 7.5 mg/kg/injection, schedule: Q01DX005 (ip), vehicle: saline + Tween-80 + alcohol) was 92 % of control, the T/C (dose: 15.0 mg/kg/injection, schedule: Q01DX005 (ip), vehicle: saline + Tween-80 + alcohol) was 98 % of control and the T/C (dose: 30.0 mg/kg/injection, schedule: Q01DX005 (ip), vehicle: saline + Tween-80 + alcohol) was 97 % of control. The T/C (dose: 60.0 mg/kg/injection, schedule: Q01DX005 (ip), vehicle: saline + Tween-80 + alcohol) was 103 % of control.

In the case of CCOP(=O)(OCC)c1ncn(Cc2ccccc2)c1N, the T/C (dose: 100.0 mg/kg/injection, schedule: Q01DX001 (ip), vehicle: saline) is reported as 97 % of control, the T/C (dose: 200.0 mg/kg/injection, schedule: Q01DX001 (ip), vehicle: saline) is reported as 104 % of control and the T/C (dose: 400.0 mg/kg/injection, schedule: Q01DX001 (ip), vehicle: saline) is reported as 101 % of control.

In the case of O=C1CCCOCCCOCCCOCCCOCCCOCCC1, the T/C (dose: 50.0 mg/kg/injection, schedule: Q01DX005 (ip), vehicle: saline with Tween-80) is reported as 103 % of control, the T/C (dose: 100.0 mg/kg/injection, schedule: Q01DX005 (ip), vehicle: saline with Tween-80) is reported as 100 % of control and the T/C (dose: 200.0 mg/kg/injection, schedule: Q01DX005 (ip), vehicle: saline with Tween-80) is reported as 100 % of control.

CCCSc1ncnc2nc(C)[nH]c12 was tested, and the T/C (dose: 0.39 mg/kg/injection, schedule: Q01DX009 (ip), vehicle: saline with Tween-80) was 95 % of control, the T/C (dose: 0.78 mg/kg/injection, schedule: Q01DX009 (ip), vehicle: saline with Tween-80) was 92 % of control and the T/C (dose: 1.56 mg/kg/injection, schedule: Q01DX009 (ip), vehicle: saline with Tween-80) was 98 % of control. For the same molecule, the T/C (dose: 3.13 mg/kg/injection, schedule: Q01DX009 (ip), vehicle: saline with Tween-80) was 94 % of control.

For CCOC(=O)C1=C(C(=O)c2ccc(C)cc2)C(c2cccc([N+](=O)[O-])c2)C(C(=O)c2ccc(C)cc2)=C(C(=O)OCC)N1, the T/C (dose: 60.0 mg/kg/injection, schedule: Q01DX005 (ip), vehicle: saline with Tween-80) was 103 % of control, the T/C (dose: 120.0 mg/kg/injection, schedule: Q01DX005 (ip), vehicle: saline with Tween-80) was 93 % of control and the T/C (dose: 240.0 mg/kg/injection, schedule: Q01DX005 (ip), vehicle: saline with Tween-80) was 111 % of control.

CC(C)(C)OOC(=O)c1ccc(Cl)cc1 was tested, and the T/C (dose: 100.0 mg/kg/injection, schedule: Q04DX002 (ip), vehicle: saline with Tween-80) was 96 % of control, the T/C (dose: 200.0 mg/kg/injection, schedule: Q04DX002 (ip), vehicle: saline with Tween-80) was 95 % of control and the T/C (dose: 400.0 mg/kg/injection, schedule: Q04DX002 (ip), vehicle: saline with Tween-80) was 101 % of control.

In the case of CCN(CC)c1nc(/C=C\c2ccc(N(C)C)cc2)c2nccnc2n1, the T/C (dose: 50.0 mg/kg/injection, schedule: Q01DX009 (ip), vehicle: Klucel (hydroxypropylcellulose) (HPC)) is reported as 95 % of control, the T/C (dose: 100.0 mg/kg/injection, schedule: Q01DX009 (ip), vehicle: Klucel (hydroxypropylcellulose) (HPC)) is reported as 90 % of control and the T/C (dose: 200.0 mg/kg/injection, schedule: Q01DX009 (ip), vehicle: Klucel (hydroxypropylcellulose) (HPC)) is reported as 94 % of control.
